Reference: ChEMBL document CHEMBL5625233, “Exploring positions 6 and 7 of a quinazoline-based scaffold leads to changes in selectivity and potency towards RIPK2/3 kinases” (Eur J Med Chem, 2023)
Calls of active or inactive are those of the source. The calls are words filed in the database; no cut-off is given here.

Assays:
[1] = target: T1, Receptor-interacting serine/threonine-protein kinase 2 (Homo sapiens, UniProt O43353); assay: Inhibition of N-terminal polyHis-tagged human RIPK2 (8 to 310 residues) expressed in Sf9 cells using MBP as substrate preincubated for 15 mins followed by ATP addition measured after 90 mins by ADP-Glo assay
[2] = target: T2, Receptor-interacting serine/threonine-protein kinase 3 (Homo sapiens, UniProt Q9Y572); assay: Inhibition of N-terminal polyHis-tagged human RIPK3 (1 to 307 residues) expressed in Sf9 cells using MBP as substrate preincubated for 15 mins followed by ATP addition measured after 90 mins by ADP-Glo assay
Target sequence in this assay (Q9Y572 whole entry, the tested form may be a part): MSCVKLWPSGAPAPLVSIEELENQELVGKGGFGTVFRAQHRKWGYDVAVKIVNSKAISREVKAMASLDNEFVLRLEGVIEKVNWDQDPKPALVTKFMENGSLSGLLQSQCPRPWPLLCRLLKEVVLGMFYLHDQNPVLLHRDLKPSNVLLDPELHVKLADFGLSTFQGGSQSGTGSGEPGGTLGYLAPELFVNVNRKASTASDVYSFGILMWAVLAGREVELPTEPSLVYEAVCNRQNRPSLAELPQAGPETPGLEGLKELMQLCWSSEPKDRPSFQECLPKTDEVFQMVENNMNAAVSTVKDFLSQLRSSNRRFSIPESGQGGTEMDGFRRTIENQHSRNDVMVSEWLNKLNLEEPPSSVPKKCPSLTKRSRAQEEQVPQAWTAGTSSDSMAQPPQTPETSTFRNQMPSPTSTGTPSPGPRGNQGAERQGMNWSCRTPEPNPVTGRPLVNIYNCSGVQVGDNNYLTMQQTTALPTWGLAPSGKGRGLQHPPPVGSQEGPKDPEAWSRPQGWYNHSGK

[3] = target: T3, Receptor-interacting serine/threonine-protein kinase 1 (Homo sapiens, UniProt Q13546); assay: Inhibition of N-terminal polyHis-tagged human RIPK1 (1 to 321 residues) expressed in Sf9 cells using MBP as substrate preincubated for 15 mins followed by ATP addition measured after 90 mins by ADP-Glo assay
T3 sequence (Q13546 whole entry): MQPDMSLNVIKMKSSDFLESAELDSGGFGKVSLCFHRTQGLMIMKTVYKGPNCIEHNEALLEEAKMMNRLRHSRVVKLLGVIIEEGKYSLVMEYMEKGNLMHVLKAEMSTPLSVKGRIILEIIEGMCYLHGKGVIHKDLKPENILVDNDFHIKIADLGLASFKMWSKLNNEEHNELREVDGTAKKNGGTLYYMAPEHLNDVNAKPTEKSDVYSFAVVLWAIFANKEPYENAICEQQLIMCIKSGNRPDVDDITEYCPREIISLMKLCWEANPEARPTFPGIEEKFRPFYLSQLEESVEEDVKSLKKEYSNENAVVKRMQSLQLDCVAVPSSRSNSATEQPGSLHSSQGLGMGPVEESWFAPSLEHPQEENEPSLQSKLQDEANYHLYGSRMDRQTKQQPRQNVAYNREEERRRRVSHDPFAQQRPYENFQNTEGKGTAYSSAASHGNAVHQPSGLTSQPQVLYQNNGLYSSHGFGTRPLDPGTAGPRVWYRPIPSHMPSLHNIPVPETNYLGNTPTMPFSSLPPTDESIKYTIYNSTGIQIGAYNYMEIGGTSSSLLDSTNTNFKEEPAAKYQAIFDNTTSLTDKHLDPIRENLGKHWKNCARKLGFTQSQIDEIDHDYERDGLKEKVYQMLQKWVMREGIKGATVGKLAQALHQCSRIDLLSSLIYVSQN

[4] = target: T4, Receptor-interacting serine/threonine-protein kinase 4 (Homo sapiens, UniProt P57078); assay: Inhibition of N-terminal polyHis-tagged human RIPK4 (1 to 321 residues) expressed in Sf9 cells using MBP as substrate preincubated for 15 mins followed by ATP addition measured after 90 mins by ADP-Glo assay
T4 sequence (P57078 whole entry): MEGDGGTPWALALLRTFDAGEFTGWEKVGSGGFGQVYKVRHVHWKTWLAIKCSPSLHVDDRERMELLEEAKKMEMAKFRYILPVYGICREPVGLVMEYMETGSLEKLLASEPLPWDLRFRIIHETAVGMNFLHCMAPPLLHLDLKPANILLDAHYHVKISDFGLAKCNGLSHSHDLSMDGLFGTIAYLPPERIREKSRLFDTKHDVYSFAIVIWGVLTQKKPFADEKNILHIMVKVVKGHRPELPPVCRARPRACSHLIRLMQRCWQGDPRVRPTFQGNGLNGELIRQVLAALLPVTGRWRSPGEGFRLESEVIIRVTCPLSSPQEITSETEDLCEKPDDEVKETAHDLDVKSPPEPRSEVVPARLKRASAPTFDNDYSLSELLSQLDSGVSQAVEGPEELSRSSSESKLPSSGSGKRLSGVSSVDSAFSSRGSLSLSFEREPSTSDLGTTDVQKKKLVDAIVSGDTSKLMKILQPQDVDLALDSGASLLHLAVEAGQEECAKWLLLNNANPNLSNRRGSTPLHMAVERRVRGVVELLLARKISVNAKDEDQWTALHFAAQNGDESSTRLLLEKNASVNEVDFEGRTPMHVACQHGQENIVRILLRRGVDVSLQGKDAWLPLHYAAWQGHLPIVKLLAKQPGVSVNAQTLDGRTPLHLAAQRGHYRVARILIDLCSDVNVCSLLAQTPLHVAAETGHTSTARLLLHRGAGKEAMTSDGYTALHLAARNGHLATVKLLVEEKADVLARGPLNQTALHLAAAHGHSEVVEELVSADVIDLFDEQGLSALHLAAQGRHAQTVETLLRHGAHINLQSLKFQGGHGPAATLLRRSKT

[5] = target: T1, Receptor-interacting serine/threonine-protein kinase 2; assay: Inhibition of RIPK2-mediated NF-kappaB signalling in C14-TriLAN-Gly-treated human THP-1 cells preincubated for 30 mins followed by C14-TriLAN-Gly addition measured after 24 hrs by luminescence based assay; format: cell-based
[6] = target: T1, Receptor-interacting serine/threonine-protein kinase 2; assay: Inhibition of RIPK2-mediated NF-kappaB signalling in MDP-treated human THP-1 cells preincubated for 30 mins followed by MDP addition measured after 24 hrs by luminescence based assay; format: cell-based
[7] = tested on: HT-29; assay: Cytotoxicity against human HT-29 cells assessed as cell viability at 10 uM incubated for 24 hrs by Cell Titer Glo assay; format: toxicity, cell-based; conditions: ht-29, 24 h
[8] = Metabolic stability in human liver microsomes assessed as compound remaining at 10 uM incubated for 45 mins by ECHO-MS analysis; format: ADME, Microsome; conditions: for Stability: microsomes, 0.75 h, 10 µM; for remaining at 0.75 h, 10 µM: liver microsomes, read-out: Stability
[9] = Metabolic stability in mouse liver microsomes assessed as compound remaining at 10 uM incubated for 45 mins by ECHO-MS analysis; format: ADME, Microsome; conditions: read-out: Stability
[10] = Metabolic stability in human plasma assessed as compound remaining at 5 uM incubated for 120 mins by ECHO-MS analysis; format: ADME, cell-free; conditions: for remaining at 2 h, 5 µM: read-out: Stability; for Stability: 2 h, 5 µM
[11] = Metabolic stability in mouse plasma assessed as compound remaining at 5 uM incubated for 120 mins by ECHO-MS analysis; format: ADME, cell-free; conditions: for remaining at 2 h, 5 µM: read-out: Stability
[12] = target: Vascular endothelial growth factor receptor 2 (Homo sapiens) (UniProt P35968); assay: Inhibition of human KDR relative to control; set-up: concentration or dose not given beside the values; conditions: concentration not given here
[13] = target: T2, Receptor-interacting serine/threonine-protein kinase 3; assay: Inhibition of N-terminal polyHis-tagged human RIPK3 (1 to 307 residues) expressed in Sf9 cells using MBP as substrate upto 10 uM preincubated for 15 mins followed by ATP addition measured after 90 mins by ADP-Glo assay; conditions: time 105.0 min
Target sequence in this assay (Q9Y572 whole entry, looked up, the tested form may be a part): as the sequence (Q9Y572 whole entry, the tested form may be a part) above

[14] = target: Epidermal growth factor receptor (Homo sapiens) (UniProt P00533); assay: Inhibition of human EGFR relative to control; conditions: concentration not given here
[15] = target: Serine/threonine-protein kinase 10 (Homo sapiens) (UniProt O94804); assay: Inhibition of human LOK relative to control; conditions: concentration not given here
[16] = target: Tyrosine-protein kinase Fyn (Homo sapiens) (UniProt P06241); assay: Inhibition of human FYN relative to control; conditions: concentration not given here
[17] = target: MAP kinase-interacting serine/threonine-protein kinase 2 (Homo sapiens) (UniProt Q9HBH9); assay: Inhibition of human MNK2 relative to control; conditions: concentration not given here
[18] = target: T1, Receptor-interacting serine/threonine-protein kinase 2; assay: Inhibition of RIPK2-mediated NF-kappaB signalling in C14-TriLAN-Gly-treated human THP-1 cells upto 10 uM preincubated for 30 mins followed by C14-TriLAN-Gly addition measured after 24 hrs by luminescence based assay; format: cell-based
[19] = target: T1, Receptor-interacting serine/threonine-protein kinase 2; assay: Inhibition of RIPK2-mediated NF-kappaB signalling in MDP-treated human THP-1 cells upto 10 uM preincubated for 30 mins followed by MDP addition measured after 24 hrs by luminescence based assay; format: cell-based
[20] = target: Tyrosine-protein kinase Lyn (Homo sapiens) (UniProt P07948); assay: Inhibition of human LYN relative to control; conditions: concentration not given here
[21] = target: Tyrosine-protein kinase ABL1 (Homo sapiens) (UniProt P00519); assay: Inhibition of human ABL relative to control; conditions: concentration not given here

Epidermal growth factor receptor (Homo sapiens), sequence (P00533 whole entry): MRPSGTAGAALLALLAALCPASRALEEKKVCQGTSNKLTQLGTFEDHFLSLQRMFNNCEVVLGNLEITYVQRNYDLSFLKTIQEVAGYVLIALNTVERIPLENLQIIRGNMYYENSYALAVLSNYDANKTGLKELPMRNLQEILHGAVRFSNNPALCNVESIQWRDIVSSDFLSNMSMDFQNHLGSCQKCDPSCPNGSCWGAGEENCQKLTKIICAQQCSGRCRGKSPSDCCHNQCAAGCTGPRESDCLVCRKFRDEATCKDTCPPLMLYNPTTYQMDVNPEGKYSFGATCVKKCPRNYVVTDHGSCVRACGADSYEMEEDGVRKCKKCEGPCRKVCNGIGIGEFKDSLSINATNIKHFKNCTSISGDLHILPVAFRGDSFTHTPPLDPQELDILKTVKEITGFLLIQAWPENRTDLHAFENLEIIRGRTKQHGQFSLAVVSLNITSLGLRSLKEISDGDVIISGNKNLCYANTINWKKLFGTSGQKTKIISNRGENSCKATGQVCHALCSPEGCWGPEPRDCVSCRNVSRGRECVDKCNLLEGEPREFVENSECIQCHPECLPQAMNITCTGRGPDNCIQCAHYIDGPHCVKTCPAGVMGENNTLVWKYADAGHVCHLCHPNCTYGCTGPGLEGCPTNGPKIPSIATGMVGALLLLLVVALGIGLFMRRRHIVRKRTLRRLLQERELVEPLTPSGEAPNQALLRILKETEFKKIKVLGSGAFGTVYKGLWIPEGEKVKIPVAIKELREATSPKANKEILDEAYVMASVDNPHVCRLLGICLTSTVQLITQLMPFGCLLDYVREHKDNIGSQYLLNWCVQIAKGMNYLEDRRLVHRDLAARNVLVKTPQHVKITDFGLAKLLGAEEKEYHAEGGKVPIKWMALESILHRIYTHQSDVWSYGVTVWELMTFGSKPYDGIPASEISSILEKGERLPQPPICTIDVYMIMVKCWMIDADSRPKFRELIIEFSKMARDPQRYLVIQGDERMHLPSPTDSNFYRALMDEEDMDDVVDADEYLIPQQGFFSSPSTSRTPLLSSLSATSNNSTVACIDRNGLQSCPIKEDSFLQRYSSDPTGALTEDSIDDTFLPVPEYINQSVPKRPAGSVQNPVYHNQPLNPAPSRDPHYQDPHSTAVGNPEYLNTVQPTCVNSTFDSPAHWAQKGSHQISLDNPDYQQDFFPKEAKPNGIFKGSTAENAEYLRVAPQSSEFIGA
T1 sequence (O43353 whole entry, the tested form may be a part): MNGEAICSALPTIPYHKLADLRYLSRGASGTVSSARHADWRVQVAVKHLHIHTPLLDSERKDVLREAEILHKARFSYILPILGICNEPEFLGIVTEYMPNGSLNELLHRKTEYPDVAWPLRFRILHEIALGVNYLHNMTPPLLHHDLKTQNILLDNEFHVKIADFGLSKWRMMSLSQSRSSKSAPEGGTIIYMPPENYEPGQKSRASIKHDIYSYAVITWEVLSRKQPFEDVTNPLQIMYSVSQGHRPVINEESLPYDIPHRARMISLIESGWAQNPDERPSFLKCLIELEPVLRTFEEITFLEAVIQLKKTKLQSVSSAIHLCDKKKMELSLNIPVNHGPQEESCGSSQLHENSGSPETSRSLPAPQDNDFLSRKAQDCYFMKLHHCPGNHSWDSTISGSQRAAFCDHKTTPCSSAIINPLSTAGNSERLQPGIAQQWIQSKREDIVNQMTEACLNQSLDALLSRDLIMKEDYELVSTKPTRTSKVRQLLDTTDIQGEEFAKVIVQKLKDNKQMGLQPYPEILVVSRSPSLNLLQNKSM
Vascular endothelial growth factor receptor 2 (Homo sapiens), sequence (P35968 whole entry, the tested form may be a part): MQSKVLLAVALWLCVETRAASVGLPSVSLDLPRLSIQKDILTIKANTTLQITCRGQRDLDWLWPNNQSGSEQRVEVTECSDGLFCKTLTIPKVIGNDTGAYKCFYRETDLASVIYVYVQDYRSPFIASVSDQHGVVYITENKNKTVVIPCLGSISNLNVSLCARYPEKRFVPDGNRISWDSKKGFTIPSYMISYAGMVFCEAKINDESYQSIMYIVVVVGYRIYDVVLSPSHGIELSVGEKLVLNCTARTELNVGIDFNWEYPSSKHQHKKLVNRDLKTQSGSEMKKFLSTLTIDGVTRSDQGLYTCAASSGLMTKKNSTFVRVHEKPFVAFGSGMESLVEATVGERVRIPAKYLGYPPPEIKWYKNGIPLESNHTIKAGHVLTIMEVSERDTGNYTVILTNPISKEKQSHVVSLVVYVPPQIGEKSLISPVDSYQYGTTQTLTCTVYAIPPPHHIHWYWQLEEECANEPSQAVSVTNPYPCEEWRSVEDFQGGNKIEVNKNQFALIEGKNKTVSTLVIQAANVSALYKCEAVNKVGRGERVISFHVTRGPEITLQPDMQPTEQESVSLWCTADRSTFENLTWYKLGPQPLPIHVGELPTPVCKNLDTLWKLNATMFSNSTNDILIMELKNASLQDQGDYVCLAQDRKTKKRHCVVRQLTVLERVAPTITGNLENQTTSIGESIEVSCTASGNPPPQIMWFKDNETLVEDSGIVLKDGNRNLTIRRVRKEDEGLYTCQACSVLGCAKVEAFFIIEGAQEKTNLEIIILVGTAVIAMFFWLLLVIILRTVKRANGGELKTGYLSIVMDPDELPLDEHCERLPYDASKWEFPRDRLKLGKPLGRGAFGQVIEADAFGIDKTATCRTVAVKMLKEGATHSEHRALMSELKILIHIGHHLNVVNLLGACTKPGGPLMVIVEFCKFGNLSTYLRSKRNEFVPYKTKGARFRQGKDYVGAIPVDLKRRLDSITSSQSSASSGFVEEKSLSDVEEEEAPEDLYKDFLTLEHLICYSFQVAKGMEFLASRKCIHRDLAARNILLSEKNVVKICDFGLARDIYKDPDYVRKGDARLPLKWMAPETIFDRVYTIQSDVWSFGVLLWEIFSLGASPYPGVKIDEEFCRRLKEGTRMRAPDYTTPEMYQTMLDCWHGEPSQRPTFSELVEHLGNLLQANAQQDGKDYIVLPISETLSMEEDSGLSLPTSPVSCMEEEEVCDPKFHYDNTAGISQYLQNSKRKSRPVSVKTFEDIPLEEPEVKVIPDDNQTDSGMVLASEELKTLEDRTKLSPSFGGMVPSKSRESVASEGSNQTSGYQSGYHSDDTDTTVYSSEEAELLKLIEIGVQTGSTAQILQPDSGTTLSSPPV
Tyrosine-protein kinase Fyn (Homo sapiens), sequence (P06241 2-537 limits assumed): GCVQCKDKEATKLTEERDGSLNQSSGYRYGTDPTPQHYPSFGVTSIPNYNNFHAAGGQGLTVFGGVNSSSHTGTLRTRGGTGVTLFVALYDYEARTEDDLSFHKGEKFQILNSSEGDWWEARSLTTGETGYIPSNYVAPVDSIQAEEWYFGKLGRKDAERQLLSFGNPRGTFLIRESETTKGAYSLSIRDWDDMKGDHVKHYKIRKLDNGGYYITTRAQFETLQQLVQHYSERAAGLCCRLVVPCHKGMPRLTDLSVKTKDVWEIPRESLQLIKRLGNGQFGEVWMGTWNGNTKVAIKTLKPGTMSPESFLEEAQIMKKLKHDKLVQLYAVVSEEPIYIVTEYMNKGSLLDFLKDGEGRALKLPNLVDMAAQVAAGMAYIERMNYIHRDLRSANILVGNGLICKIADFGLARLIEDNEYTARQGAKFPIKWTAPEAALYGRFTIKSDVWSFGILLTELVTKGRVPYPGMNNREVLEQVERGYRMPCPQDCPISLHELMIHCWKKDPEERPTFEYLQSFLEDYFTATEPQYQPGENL
Tyrosine-protein kinase Lyn (Homo sapiens), sequence (P07948 2-512 limits assumed): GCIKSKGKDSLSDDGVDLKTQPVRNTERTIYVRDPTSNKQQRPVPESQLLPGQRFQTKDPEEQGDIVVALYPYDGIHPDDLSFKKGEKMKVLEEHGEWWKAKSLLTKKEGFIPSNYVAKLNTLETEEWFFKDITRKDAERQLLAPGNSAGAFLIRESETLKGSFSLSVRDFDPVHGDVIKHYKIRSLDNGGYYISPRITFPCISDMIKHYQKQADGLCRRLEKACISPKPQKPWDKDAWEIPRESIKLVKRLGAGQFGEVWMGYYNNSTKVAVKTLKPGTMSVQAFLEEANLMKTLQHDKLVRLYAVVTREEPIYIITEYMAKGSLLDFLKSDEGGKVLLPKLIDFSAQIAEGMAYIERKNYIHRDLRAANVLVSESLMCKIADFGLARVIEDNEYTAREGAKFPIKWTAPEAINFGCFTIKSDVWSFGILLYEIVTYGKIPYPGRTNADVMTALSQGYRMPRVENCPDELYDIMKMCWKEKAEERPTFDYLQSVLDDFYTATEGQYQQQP

| Compound | IC50 [1] [µM] | IC50 [2] [µM] | IC50 [3] [µM] | IC50 [4] [µM] | IC50 [5] [µM] | IC50 [6] [µM] | Stability [8] [%] | remaining at 0.75 h, 10 µM [9] [%] | remaining at 2 h, 5 µM [10] [%] | remaining at 2 h, 5 µM [11] [%] | inhibition [12] [%] | inhibition [13] | remaining at 0.75 h, 10 µM [8] [%] | Stability [10] [%] | inhibition [14] [%] | further results |
| --- | --- | --- | --- | --- | --- | --- | --- | --- | --- | --- | --- | --- | --- | --- | --- | --- |
| Cn1cncc1-c1ccc2ncnc(Nc3ccc4scnc4c3)c2c1 | 0.004 |  | > 50 | > 50 | 0.119 | 0.115 |  | 118 |  | 79 | 66 | inactive | 108 | 121 | 68 |  |
| C1=C(c2cc3ncnc(Nc4ccc5scnc5c4)c3cc2-c2cccs2)COC1 | 0.005 | 0.464 | > 50 | > 50 | 0.051 | 0.036 |  | 94 | 107 | 111 |  |  | 108 |  |  |  |
| c1csc(-c2ccc3ncnc(Nc4ccc5scnc5c4)c3c2)c1 | 0.004 | 0.398 | > 50 | > 50 | 0.106 | 0.12 |  |  |  |  | 69 |  |  |  | 54 | inhibition [15]: 50%; inhibition [16]: 71%; inhibition [17]: 54% |
| Cn1cncc1-c1cc2c(Nc3ccc4scnc4c3)ncnc2cc1Cl | 0.007 |  | > 50 | > 50 | 0.146 | 0.054 |  | 105 |  | 102 |  | inactive | 94 | 122 |  |  |
| CC(C)[N+](C)(CCOC(=O)C1c2ccccc2Oc2ccccc21)C(C)C [PROPANTHELINE] |  |  |  |  |  |  |  |  | 2 | 11 |  |  |  |  |  |  |
| COc1cccc(-c2ccc3ncnc(Nc4ccc5scnc5c4)c3c2)n1 | 0.049 |  | > 50 | > 50 |  |  |  |  |  |  |  | inactive |  |  |  | IC50 [18]: Not Active; IC50 [19]: Not Active |
| Cn1cccc1-c1cc2c(Nc3ccc4scnc4c3)ncnc2cc1-c1cccc(CO)c1 | 0.005 | 0.141 | > 50 | > 50 | 0.119 | 0.095 | 124 | 93 | 112 | 119 | 74 |  |  |  |  | Activity [7]: Toxic |

Now from value to molecule, other results behind:

| IC50 [1] [µM] | IC50 [2] [µM] | IC50 [3] [µM] | IC50 [4] [µM] | IC50 [5] [µM] | IC50 [6] [µM] | Stability [8] [%] | remaining at 0.75 h, 10 µM [9] [%] | remaining at 2 h, 5 µM [10] [%] | remaining at 2 h, 5 µM [11] [%] | inhibition [12] [%] | inhibition [13] | remaining at 0.75 h, 10 µM [8] [%] | Stability [10] [%] | inhibition [14] [%] | Compound | further results |
| --- | --- | --- | --- | --- | --- | --- | --- | --- | --- | --- | --- | --- | --- | --- | --- | --- |
| 0.004 | 0.122 | > 50 | > 50 | 0.225 | 0.229 | 123 | 118 | 113 | 108 | 85 |  |  |  |  | Cc1ccsc1-c1cc2c(Nc3ccc4scnc4c3)ncnc2cc1-c1cccc(CO)c1 | Activity [7]: Toxic |
| 0.003 |  | > 50 | > 50 | 0.183 | 0.058 |  | 115 |  |  |  | inactive | 105 | 141 |  | Cn1ccnc1-c1cc2c(Nc3ccc4scnc4c3)ncnc2cc1Cl | Stability ([11]; 2 h, 5 µM): 135% |
| 0.003 | 0.117 | > 50 | > 50 | 0.014 | 0.027 | 124 | 114 | 108 | 107 | 94 |  |  |  | 79 | OCc1ccc(-c2cc3ncnc(Nc4ccc5scnc5c4)c3cc2-c2cccs2)o1 | inhibition [15]: 83%; inhibition [16]: 94%; inhibition [20]: 94%; inhibition [21]: 70% |
